pIC50: −log10 of the molar value. One block for each molecule: values may come before it.
How the values were obtained:
[1] = test system: human bladder cancer cells; format: cell-based; conditions: 48 h
Description: XI. Biological Experiments
Cell Counting Kit (CCK-8) was used to evaluate the proliferation inhibition activity of the compounds, and the half inhibitory concentration IC50 value was determined by single-concentration primary screening and multi-concentration.
Fetal Bovine Serum (FBS) 04-001-1acs, Biological industries; PBS phosphate buffer (PB180327), penicillin-streptomycin sulfate double resistant mixture (100× ) […]
Leibovitz's L-15 medium (PM151010), Wuhan Punosai Life Technology Co., LTD.
CCK-8 Kit, Biosharp life sciences; Trypsin-edta Digestive Solution (05200-056), GIBCO; Cellular DMSO (D2650 -100ML), SIGMA; 96-well cell culture plate, Corning Life Sciences (Wujiang) Co., LTD. 25, 75cm2 cell culture bottle, Corning Life Sciences (Wujiang) Co., LTD. Blood cell counting plate, Shanghai Qiujing Biochemical Reagent Instrument Co., LTD. Cisplatin (D8810), Solarbio life sciences;
Instruments and equipment
Super clean workbench (sw-cj-2fd), Sujing Aetna; Microscope (nib -100), Ningbo Yongxin Optical Co., Ltd; Carbon dioxide cell incubator (MCO -18AC), Phcbi; Electric constant temperature water bath pot (HWS -24), Shanghai Yiheng Technology Co., Ltd; Multifunctional microplate reader (Multiskan MK3), Thermo; One ten-thousandth balance (MS105DU), METTLER; Centrifuge (TD4N), ChangshaYingtai Instrument Co., Ltd; Mixer (SCI-VS), Selo Czech Republic, USA.
The samples were dissolved in the cell -grade DMSO after accurately weighing to generate the 10 mM drug solution. The drug solution was further diluted to tenfold detection concentration by cell culture medium.
Standard Operation Procedure
Detection principle of cytotoxicity (CCK -8 method):
The detection principle is that the CCK-8 reagent contains WST-8, which is reduced S52 to a highly water-soluble yellow methyl product (formazan) by dehydrogenase in the cell mitochondria under the action of electron carrier 1-methoxy-5-methylphenazine dimethyl sulfate (1-methoxy PMS). The number of the nail products produced is directly proportional to the number of living cells.
(1) Inoculate cells: The cells were prepared into single cell suspension with the culture medium containing 10% fetal bovine serum, and the 96 well plates were inoculated with 90 uL cell culture medium (Adherent cell viewed 5×10^4/mL and Suspension cell viewed 9×10^4/mL) per well, then cultured at 5% CO2 and 37 ℃ for 24 hours.
(2) Add the sample solution to be tested: Add 10 µL sample solution to each well. One concentration was set for each sample during preliminary screening and three multiple holes were set for each concentration. Eight concentration gradients were set for each sample for IC50 determination and three multiple holes were set for each concentration.
The 96 well plates were cultured at 5% CO2 and 37 ℃ for 48 hours. The experiment was divided into a blank group, control group and drug group.
(3) Color development: The old culture medium and drug solution of adherent cells were sucked out, then 100 µL of CCK-8 solution (diluted ten times with the basic medium) was added and the suspension cells were directly added 10 µL of CCK-8 stock solution. Culture at 37 ℃ with 5% CO2 for 1-4 h (dark operation, real-time observation).
(4) Result detection: The absorbance was measured at 450 nm with an enzyme labeling instrument and the original data and results were recorded.
(5) The toxicity is expressed by cell inhibition, and the calculation formula is as follows:
Cell inhibition (%) = (ODControl-ODDrug) / (ODControl-ODBlank)×100%. The IC50 was calculated by the software graphpad prism 8 (version 8.0.2, from GraphPad SoftwareInc)，and the experimental results are expressed in ± SD.
6) Positive control: Cisplatin.

[2] = Cys-Lys stapling of unprotected peptides with unsymmetrical linker (1.5 equiv): Cys thiol displaces phthalimide from N-thiophthalimide (disulfide, ~1 min), then ring closure by Lys amine attack on pentafluorophenyl ester with DIPEA (4 equiv); conditions: the molecule shown is the open-chain precursor, CH3CN:H2O 3:1, 25.0 °C, 0.167 h

pIC50 [1]: 4.84
SMILES: CC(=O)N[C@H](C(=O)N[C@@H](CO)C(=O)N[C@@H](Cc1ccccc1)C(=O)N[C@H]1CCCCNC(=O)CC/C(=C\Cl)SSC[C@@H](C(=O)N[C@@H](CC(C)C)C(=O)N[C@@H](CC(C)C)C(=O)N[C@@H](CO)C(=O)N[C@@H](CCCNC(=N)N)C(N)=O)NC(=O)[C@H](Cc2c[nH]c3ccccc23)NC(=O)[C@H](Cc2ccc(O)cc2)NC(=O)[C@H](CCC(N)=O)NC1=O)[C@@H](C)O [Peptide 5k]

pIC50 [1]: 4.83
SMILES: CC(=O)N[C@H](C(=O)N[C@@H](CO)C(=O)N[C@@H](Cc1ccccc1)C(=O)N[C@H]1CCCCNC(=O)c2ccccc2OCC/C(Cl)=C\SSC[C@@H](C(=O)N[C@@H](CC(C)C)C(=O)N[C@@H](CC(C)C)C(=O)N[C@@H](CO)C(=O)N[C@@H](CCCNC(=N)N)C(N)=O)NC(=O)[C@H](Cc2c[nH]c3ccccc23)NC(=O)[C@H](Cc2ccc(O)cc2)NC(=O)[C@H](CCC(N)=O)NC1=O)[C@@H](C)O [Peptide 5p]

SMILES: CC[C@H](C)[C@H](NC(=O)[C@@H]1CCCN1C(=O)[C@H](CSS/C(=C/Cl)CCOc1ccccc1C(=O)Oc1c(F)c(F)c(F)c(F)c1F)NC(C)=O)C(=O)N[C@@H](CCSC)C(=O)N[C@@H](CCC(=O)O)C(=O)N[C@@H](CC(=O)O)C(=O)N[C@@H](CCCNC(=N)N)C(=O)N[C@@H](CCCCN)C(=O)N1CCC[C@H]1C(N)=O [Ac-Cys(S-linker 3i-OPfp)-Pro-Ile-Met-Glu-Asp-Arg-Lys-Pro-NH2]
ring closure, isolated yield ([2]; 37-membered ring): 65%

pIC50 [1]: 4.65
SMILES: CC(=O)N[C@H](C(=O)N[C@@H](CO)C(=O)N[C@@H](Cc1ccccc1)C(=O)N[C@H]1CCCCNC(=O)c2cccc(c2)OCC/C(Cl)=C\SSC[C@@H](C(=O)N[C@@H](CC(C)C)C(=O)N[C@@H](CC(C)C)C(=O)N[C@@H](CO)C(=O)N[C@@H](CCCNC(=N)N)C(N)=O)NC(=O)[C@H](Cc2c[nH]c3ccccc23)NC(=O)[C@H](Cc2ccc(O)cc2)NC(=O)[C@H](CCC(N)=O)NC1=O)[C@@H](C)O [Peptide 5q]

SMILES: CC(=O)N[C@@H](CCC(N)=O)C(=O)N[C@@H](CO)C(=O)N[C@@H](CCC(N)=O)C(=O)N[C@@H](CCC(N)=O)C(=O)N[C@H](C(=O)N[C@@H](Cc1ccccc1)C(=O)N[C@@H](CSS/C(=C/Cl)COCC(=O)Oc1c(F)c(F)c(F)c(F)c1F)C(=O)N[C@@H](CC(N)=O)C(=O)N[C@@H](CC(C)C)C(=O)N[C@@H](Cc1c[nH]c2ccccc12)C(=O)N[C@@H](CCCNC(=N)N)C(=O)N[C@@H](CC(C)C)C(=O)N[C@@H](CC(C)C)C(=O)N[C@@H](CCCCN)C(=O)N[C@@H](CCC(N)=O)C(=O)N[C@@H](CC(N)=O)C(N)=O)[C@@H](C)O
ring closure, isolated yield ([2]; 35-membered ring): 89%

SMILES: CC[C@H](C)[C@H](NC(=O)[C@@H]1CCCN1C(=O)[C@H](CSS/C(=C/Cl)CCCC(=O)Oc1c(F)c(F)c(F)c(F)c1F)NC(C)=O)C(=O)N[C@@H](CCSC)C(=O)N[C@@H](CCC(=O)O)C(=O)N[C@@H](CC(=O)O)C(=O)N[C@@H](CCCNC(=N)N)C(=O)N[C@@H](CCCCN)C(=O)N1CCC[C@H]1C(N)=O [Ac-Cys(S-linker 3b-OPfp)-Pro-Ile-Met-Glu-Asp-Arg-Lys-Pro-NH2]
ring closure, isolated yield ([2]; 35-membered ring): 81%

SMILES: CC(=O)N[C@H](C(=O)N[C@@H](CO)C(=O)N[C@@H](Cc1ccccc1)C(=O)N[C@@H](CCCCN)C(=O)N[C@@H](CCC(N)=O)C(=O)N[C@@H](Cc1ccc(O)cc1)C(=O)N[C@@H](Cc1c[nH]c2ccccc12)C(=O)N[C@@H](CSS/C(=C/Cl)COCC(=O)Oc1c(F)c(F)c(F)c(F)c1F)C(=O)N[C@@H](CC(C)C)C(=O)N[C@@H](CC(C)C)C(=O)N[C@@H](CO)C(=O)N[C@@H](CCCNC(=N)N)C(N)=O)[C@@H](C)O
ring closure, isolated yield ([2]; 26-membered ring): 78%

SMILES: CC(=O)N[C@@H](CCC(N)=O)C(=O)N[C@@H](CO)C(=O)N[C@@H](CCC(N)=O)C(=O)N[C@@H](CCC(N)=O)C(=O)N[C@H](C(=O)N[C@@H](Cc1ccccc1)C(=O)N[C@@H](CSS/C(=C/Cl)CCOc1cccc(C(=O)Oc2c(F)c(F)c(F)c(F)c2F)c1)C(=O)N[C@@H](CC(N)=O)C(=O)N[C@@H](CC(C)C)C(=O)N[C@@H](Cc1c[nH]c2ccccc12)C(=O)N[C@@H](CCCNC(=N)N)C(=O)N[C@@H](CC(C)C)C(=O)N[C@@H](CC(C)C)C(=O)N[C@@H](CCCCN)C(=O)N[C@@H](CCC(N)=O)C(=O)N[C@@H](CC(N)=O)C(N)=O)[C@@H](C)O
ring closure, isolated yield ([2]; 38-membered ring): 85%

SMILES: CC(=O)N[C@H](C(=O)N[C@@H](CO)C(=O)N[C@@H](Cc1ccccc1)C(=O)N[C@@H](CCCCN)C(=O)N[C@@H](CCC(N)=O)C(=O)N[C@@H](Cc1ccc(O)cc1)C(=O)N[C@@H](Cc1c[nH]c2ccccc12)C(=O)N[C@@H](CSS/C(=C/Cl)CCOc1cccc(C(=O)Oc2c(F)c(F)c(F)c(F)c2F)c1)C(=O)N[C@@H](CC(C)C)C(=O)N[C@@H](CC(C)C)C(=O)N[C@@H](CO)C(=O)N[C@@H](CCCNC(=N)N)C(N)=O)[C@@H](C)O
ring closure, isolated yield ([2]; 29-membered ring): 85%

SMILES: CC(=O)N[C@@H](CCCCN)C(=O)N[C@@H](C)C(=O)N[C@@H](C)C(=O)N[C@@H](C)C(=O)N[C@@H](CSS/C(=C/Cl)CCCCC(=O)Oc1c(F)c(F)c(F)c(F)c1F)C(=O)N[C@@H](Cc1ccccc1)C(N)=O [Ac-Lys-Ala-Ala-Ala-Cys(S-linker 3c-OPfp)-Phe-NH2]
ring closure, isolated yield ([2]; 27-membered ring): 79%

pIC50 [1]: 4.66
SMILES: CC(=O)N[C@H](C(=O)N[C@@H](CO)C(=O)N[C@@H](Cc1ccccc1)C(=O)N[C@H]1CCCCNC(=O)COC/C(Cl)=C\SSC[C@@H](C(=O)N[C@@H](CC(C)C)C(=O)N[C@@H](CC(C)C)C(=O)N[C@@H](CO)C(=O)N[C@@H](CCCNC(=N)N)C(N)=O)NC(=O)[C@H](Cc2c[nH]c3ccccc23)NC(=O)[C@H](Cc2ccc(O)cc2)NC(=O)[C@H](CCC(N)=O)NC1=O)[C@@H](C)O [Peptide 5m]

SMILES: C[C@H](NC(=O)[C@H](C)NC(=O)[C@@H](N)CCCCN)C(=O)N[C@@H](C)C(=O)N[C@@H](CSS/C(=C/Cl)CCC(=O)Oc1c(F)c(F)c(F)c(F)c1F)C(=O)N[C@@H](Cc1ccccc1)C(N)=O [H-Lys-Ala-Ala-Ala-Cys(S-linker 3a-OPfp)-Phe-NH2]
ring closure, isolated yield ([2]; 25-membered ring): 68%

SMILES: CC[C@H](C)[C@H](NC(=O)[C@@H]1CCCN1C(=O)[C@H](CSS/C(=C/Cl)CCCCCC(=O)Oc1c(F)c(F)c(F)c(F)c1F)NC(C)=O)C(=O)N[C@@H](CCSC)C(=O)N[C@@H](CCC(=O)O)C(=O)N[C@@H](CC(=O)O)C(=O)N[C@@H](CCCNC(=N)N)C(=O)N[C@@H](CCCCN)C(=O)N1CCC[C@H]1C(N)=O [Ac-Cys(S-linker 3d-OPfp)-Pro-Ile-Met-Glu-Asp-Arg-Lys-Pro-NH2]
ring closure, isolated yield ([2]; 37-membered ring): 78%

From PMC12596731, “Cys–Lys stapling for unprotected peptides via tunable linkers” (National Science Review, 2025)
